Earlier results as cited in EP2703009A1, “Combination treatments involving antibodies to human PCSK9” (SANOFI, priority 2012, dated 2014).

How the values were obtained:
[1] = after oral administration; cited from earlier work
[2] = in vivo; cited from earlier work
[3] = tested on: patients with genotype-confirmed hoFH; conditions: ezetimibe 10 mg/day added to the maximal dose of statins; cited from earlier work
PCSK9 = conditions: stated as known for statins and ezetimibe; limited or no information on ezetimibe alone; cited from earlier work

| SMILES | half-life (elimination from plasma) [1] | Frequent adverse events reported [2] | total reduction of LDL-C levels [3] [%] | PCSK9 expression (PCSK9) | Less frequently reported adverse events [2] |
| --- | --- | --- | --- | --- | --- |
| CC(C)(Oc1ccc(C(=O)c2ccc(Cl)cc2)cc1)C(=O)O [Fenofibric acid] | 20 h | – | – | – | – |
| O=C(O)[C@H]1O[C@@H](Oc2ccc([C@@H]3[C@@H](CC[C@H](O)c4ccc(F)cc4)C(=O)N3c3ccc(F)cc3)cc2)[C@H](O)[C@@H](O)[C@@H]1O [ezetimibe-glucuronide] | approximately 22 hours | – | – | – | – |
| O=C1[C@H](CC[C@H](O)c2ccc(F)cc2)[C@@H](c2ccc(O)cc2)N1c1ccc(F)cc1 [ezetimibe] | – | abdominal pain, diarrhea, flatulence, fatigue, increase ALT/AST, headache and myalgia | 27 | upregulated | – |
| CC(C)OC(=O)C(C)(C)Oc1ccc(C(=O)c2ccc(Cl)cc2)cc1 [fenofibrate] | – | abdominal pain, nausea, vomiting, diarrhea, flatulence, increase ALT/AST | – | – | pancreatitis, thromboembolism (pulmonary embolism, deep venous thrombosis), biliary lithiasis, rash, pruritus, urticaria, photosensitivity reaction, increase creatinine and increase urea |
